Here are results for one molecule from patent US9606124B2, “Methods of detecting and treating stem-cell containing solid tumors” (The Regents of The University of Michigan, priority 2008, dated 2017).

Data set [1] deals with FAK Tyr397 and AKT Ser473 phosphorylation. Nature of the data set: Western blotting of FAK/AKT activation in SUM159. The format is cell-based, human. The note with it: 100 nM, two days. The procedure: (§1) Western blotting. Cells were lysed in a laemmli buffer and loaded onto SDS-polyacrylamide gels. Blots were incubated with the respective primary antibodies diluted in TBST (containing 0.1% Tween20 and 2% BSA) either overnight at 4o, or 2 hours at room temperature. Blots were washed and incubated with appropriate secondary antibodies (GE Healthcare, UK) and detected using SuperSignal West Pico Chemiluminescent Substrate (Pierce).
(Immunoblotting shows a protein as a band on a membrane.)

A further data set relates to phospho-FAK. Nature of the data set: Immunohistochemistry of phospho-FAK in xenotransplants. On the set-up: species or system NOD/SCID mice. The settings on record: mouse, in vivo. How it is done: (§2) Immunostaining. For immunofluorescent staining, sorted CXCR1-positive cells were fixed with 95% methanol at −20° C. for 10 minutes. Cells were rehydrated in PBS and incubated with respective antibodies at room temperature for 1 hour. Primary antibodies used were P-FAK (1:50, Cell Signaling Technology), P-AKT (1:300, Cell Signaling Technology), and FOXO3a (1:250, Cell Signaling Technology). Slides were then washed and incubated 30 minutes with PE conjugated secondary antibodies (Jackson labs). The nuclei were counterstained with DAPI/antifade (Invitrogen) and coverslipped. […] Immunohistochemistry for the detection of ALDH1 (1:100, BD biosciences), P-FAK, P-AKT, FOXO3a expression was done on paraffin section (Ginestier et al. Am. J Pathol. 161:1223-1233, herein incorporated by reference in its entirety). Staining was done utilizing the Histostainplus kit (Zymed laboratories). Diaminobenzidine (DAB) or 3-amino-9-ethylcarbazole (AEC) was used as chromogen and sections were counterstained with hematoxylin.

For data set [2], the system named is MDA-MB-453 cells. As to the kind of experiment: Metastasis formation after intracardiac injection of MDA-MB-453 cells (bioluminescence). The format is in vivo, NOD/SCID mice. The settings on record: 250,000 cells intracardiac, repertaxin 15 mg/kg s.c. twice a day 28 days vs saline. The procedure:
Intracardiac inoculation. […] Twelve hours after intracardiac injections, mice were begun on twice per day repertaxin injections or saline for the controls. Bioluminescence detection. Baseline bioluminescence was assessed before inoculation and each week thereafter inoculations. Bioluminescence detection procedures was performed as previously described ([…] et al. Cancer Res. 69:1302-1313, herein incorporated by reference in its entirety). Normalized photon flux represents the ratio of the photon flux detected each week after inoculations and the photon flux detected before inoculation.

For data set [3] the following is noted: phase I and phase II clinical trials, cited from earlier work.
The test system of data set [4] is FAK Tyr397 and AKT Ser473 phosphorylation. As to the kind of experiment: Western blotting of FAK/AKT activation in MDA-MB-453. The class given is cell-based, human. The procedure: as §1
Data set [5] has as its system normal mammary epithelial cells. As to the kind of experiment: Mammosphere formation by normal mammary epithelial cells. The class given is cell-based, human. The note with it: repertaxin 100 nM for four to fifteen days adherent, then suspension.
The subject of data set [6] is ALDEFLUOR-positive population of MDA-MB-453. As to the kind of experiment: ALDEFLUOR assay on MDA-MB-453 cells in vitro. The class given is cell-based, human. The note with it: three days, repertaxin 100 nM, antibodies 10 μg/ml. The procedure:
(§3) ALDEFLUOR assay. […] In order to eliminate cells of mouse origin from the xenotransplanted tumors, cell population was stained with an anti-H2Kd antibody (BD biosciences, 1/200, 20 min on ice) followed by staining with a secondary antibody labeled with phycoerythrin (PE) (Jackson labs, 1/250, 20 min on ice).

The subject of the next data set is FOXO3A. As to the kind of experiment: Immunohistochemistry of FOXO3A in xenotransplants. The arrangement: species or system NOD/SCID mice. The note with it: mouse, in vivo. The procedure: as §2
In data set [7] the test system is ALDEFLUOR-positive population of HCC1954. Nature of the data set: ALDEFLUOR assay on HCC1954 cells in vitro. The format is cell-based, human. The settings on record: three days, repertaxin 100 nM, antibodies 10 μg/ml. How it is done:
as §3

In data set [8] the test system is CXCR1-positive population of SUM159 cells. As to the kind of experiment: Flow cytometry of the CXCR1-positive population of SUM159 cells. The format is cell-based, human. The note with it: repertaxin, repertaxin plus anti-FAS-ligand, FAS agonist. The procedure: Flow cytometry analysis. […] CD95/FAS staining were performed utilizing an anti-CD95 labeled APC (1:20, BD biosciences). […] Fresh cells were stained with 1 μg/ml PI (Sigma) for 5 min for viability.
Background: Flow cytometry measures light scatter and fluorescence of single cells or particles in a stream.

Data set [9] deals with MDA-MB-453 cells. As to the kind of experiment: MTT assay, cell viability of MDA-MB-453 cells. The format is cell-based, human. The note with it: MDA-MB-453 (PTEN mutation), repertaxin 100 nM. An excerpt: Cell viability. […] After one day, treatment with repertaxin was started. […]. […] Nuclei were counterstained with DAPI/antifade (Invitrogen).
Background: Tetrazolium dyes change colour on reduction, which living cells bring about.

Data set [10] relates to SUM159 PTEN-siRNA and SUM159 Ad-FAK cells. Nature of the data set: Repertaxin on SUM159 PTEN-siRNA and SUM159 Ad-FAK cells (western, immunofluorescence, MTT, ALDEFLUOR). The settings on record: for FAK and AKT activity / FOXO3A activation in cells with PTEN deletion or FAK overexpression: 100 nM, two days. The class given is cell-based, human.
Source text: Cell viability. […] Nuclei were counterstained with DAPI/antifade (Invitrogen).
ALDEFLUOR assay. The ALDEFLUOR kit (StemCell technologies) was used to isolate the population with high ALDH enzymatic activity using a FACStarPLUS (Becton Dickinson) as previously described (Ginestier et al. Cell Stem Cell 1:555-567, herein incorporated by reference in its entirety). In order to eliminate cells of mouse origin from the xenotransplanted tumors, cell population was stained with an anti-H2Kd antibody (BD biosciences, 1/200, 20 min on ice) followed by staining with a secondary antibody labeled with phycoerythrin (PE) (Jackson labs, 1/250, 20 min on ice).
as §1, §2
Virus infection. […] All lentiviral constructs were prepared by the University of Michigan Vector. An adenoviral construct for the overexpression of FAK (Ad-FAK-GFP) was also utilized (Luo et al. Cancer Res. 69:466-474, herein incorporated by reference in its entirety). Cells infection with different vectors was performed as previously described (Charafe-Jauffret et al. Cancer Res. 69:1302-1313, herein incorporated by reference in its entirety). Efficiency of infection was verified by measuring the percentage of DsRed or GFP expressing cells.

The test system of another data set is SUM159 cells. Nature of the data set: Metastasis formation after intracardiac injection of SUM159 cells (bioluminescence). The format is in vivo, NOD/SCID mice. The settings on record: 250,000 cells intracardiac, repertaxin 15 mg/kg s.c. twice a day 28 days vs saline. How it is done: A SUM159 cell line was infected with a lentivirus expressing luciferase and inoculated 250,000 luciferase infected cells in the heart of NOD/SCID mice. The mice were organized into two groups.
Intracardiac inoculation. Six weeks-old NOD/SCID mice were anesthetized with 2% isofluorane/air mixture and injected in the heart left ventricle with 250,000 cells in 100 μL of sterile Dulbecco's PBS lacking Ca2+ and Mg2+. […] Twelve hours after intracardiac injections, mice were begun on twice per day repertaxin injections or saline for the controls.
Bioluminescence detection. Baseline bioluminescence was assessed before inoculation and each week thereafter inoculations. Bioluminescence detection procedures was performed as previously described (Charafe-Jauffret et al. Cancer Res. 69:1302-1313, herein incorporated by reference in its entirety). Normalized photon flux represents the ratio of the photon flux detected each week after inoculations and the photon flux detected before inoculation.

Entries after “also recorded” stand apart in the source; their conditions may differ. Where two headings read alike, the source gives them in different places.

Regarding `CC(C)Cc1ccc([C@@H](C)C(=O)NS(C)(=O)=O)cc1` [Repertaxin], the “FAK Tyr397 and AKT Ser473 phosphorylation (western blot)” value in [1] was “decrease in FAK Tyr397 and AKT Ser473 phosphorylation”; in [1] (listed as repertaxin), “decrease in FAK Tyr^397 and AKT Ser^473 phosphorylation”; in [4], “No modification”. Besides, the “cells with membranous phospho-FAK expression in treated tumors” value in the data set on phospho-FAK is listed as “abolished; also recorded: no expression was detected”. The entries for the “metastasis formation (normalized photon flux)” value with MDA-MB-453 cells [2], with SUM159 cells and in the data set with SUM159 cells (listed as repertaxin) were “did not have any effect on metastasis formation”, “statistically significant increase of metastasis formation in the group of mice treated with saline solution; also recorded: significantly reduced metastasis formation; also recorded: reduces the metastatic potential” and “statistically significant decrease in metastasis formation”, respectively. Further, the “toxicity in clinical studies” value in data set [3] is reported as “lack of toxicity”; in data set [3] (listed as Repartaxin) it was “little toxicity”. The “mammosphere formation by normal mammary epithelial cells” value in data set [5] is “significantly decreased mammosphere formation; also recorded: significant decrease of mammosphere-initiating cells”. The values for the ALDEFLUOR-positive population result in data set [6] and in data set [7] were “np any effect” and “significant reduction”, respectively. Moreover, the “nuclear FOXO3A in treated tumors” value with FOXO3A is “detected”. Moreover, the “percent of CXCR1-positive cells” value in data set [8] is “massive decrease”. In addition, the “cell viability (MTT)” value with MDA-MB-453 cells [9] is “no effect; also recorded: did not have any effect on cell viability”; with MDA-MB-453 cells [9] (listed as repertaxin), “did not effect the viability”. Besides, the “ALDEFLUOR-positive population of cells with PTEN deletion or FAK overexpression” value in data set [10] is “did not alter the proportion of ALDEFLUOR-positive SUM159 PTEN knockdown cells”; in data set [10] (listed as repertaxin), “maintenance of the ALDELFUOR-positive populations”. Moreover, the “FAK and AKT activity / FOXO3A activation in cells with PTEN deletion or FAK overexpression” value was “did not induce FOXO3A activation” in data set [10]; “PTEN knockdown blocked the effect of repertaxin treatment on FAK and AKT activity; also recorded: PTEN deletion and FAK overexpression blocked the effect of repertaxin treatment on FAK and AKT activity” in data set [10] (listed as repertaxin). Further, the “cell viability (MTT) of cells with PTEN deletion or FAK overexpression” value in data set [10] (3 days of treatment) was “did not display any decrease in cell viability; also recorded: developed resistance to repertaxin”.
